{"source": "patent US20160201132A1", "about": "“GENE EXPRESSION BIOMARKERS OF LAQUINIMOD RESPONSIVENESS” (Teva Pharmaceutical Industries Ltd., priority 2013, published 2016)", "system": "PBMC of RRMS patients", "assay": "Gene expression microarray analysis (HG-U133A-2) of PBMC from RRMS patients treated with LAQ, ancillary study to ALLEGRO", "assay_type": "in vivo, human", "conditions": "for Fold-Change (1.0 vs. 0.0): one month of treatment", "source_text": "The goal of this ancillary study was to characterize gene expression changes and corresponding biological mechanisms induced in PBMC of RRMS patients by LAQ treatment. According to ALLEGRO clinical trial inclusion criteria, 25 patients were randomly assigned to receive LAQ (n=13, age 38.8±2.3 years, female/male ratio: 8/5) or placebo (n=12, age 37.2±3.4 years, female/male ratio: 8/4).\nPeripheral blood samples were obtained from RRMS patients at baseline before start of LAQ treatment or placebo, after 0, 1, 6 and 24 month of treatment (visit 0, 1, 6 and 7 according to ALLEGRO clinical trial protocol correspondently) for gene microarray analysis.\nBriefly, 1) Peripheral blood mononuclear cells (PBMC) were obtained from RRMS patients that participated in ALLEGRO and were treated daily with 0.6 mg LAQ or placebo. PBMC were subjected for gene expression analysis (HU-133A-2-Affymatrix arrays) at baseline and at 1 and 6 months of LAQ treatment; 2) Data was analyzed by Partek Genomics Solution software. Most informative genes (MIGs) were defined as those that differentiated between groups with p<0.01. Gene functional annotation, enrichment and pathway analysis were performed by Ingenuity software. For each time point, genes that changed in placebo group were excluded from further analysis; and 3) Verification of LAQ related mechanism was performed by Western blot.\nPBMC were extracted from 15 ml peripheral blood, separated by Ficoll-Hypaque gradient. Total RNA was extracted using both Trizol (Invitrogen, USA) and Phase-Lock-Gel columns (Eppendorf, Germany) including a DNase digestion step. RNA integrity was assessed by RNA Experion automated electrophoresis system (Bio-Rad Laboratories, Hercules, Calif.).\nProbe synthesis using 3 μg total RNA, hybridization, detection, and scanning was performed according to the standard Affymetrix, Inc. USA protocols; cDNA was synthesized using the Two-Cycle cDNA Synthesis Kit (Affymetrix, Inc., USA), and in-vitro transcription performed with the GeneChip IVT Labeling Kit (Affymetrix, Inc., USA). The biotin-labeled IVT-RNA was hybridized to HG-U133A-2 arrays containing 18,400 gene transcripts, each corresponding to 14,500 well-annotated human genes, washed in a GeneChip Fluidics Station 450 (Hewlett Packard, USA, GeneArray-™ scanner G2500A) and scanned according to the manufacturer's protocol (Affymetrix, Inc., USA).\nData analysis was performed on Partek Genomics Solution software (www.partek.com; Partek Incorporated, St. Louis, Mo.). Expression values were computed from raw CEL files by applying the Robust Multi-Chip Average (RMA) background correction algorithm. RMA correction included: 1) values background correction; 2) quintile normalization; 3) log 2 transformation; and 4) median polish summarization. The ANOVA, Repeated Measures and correlation analysis implicated in Partek software ware applied to evaluate LAQ effects. Most informative genes MIGs were defined as those that differentiated between experimental groups with p<0.01. All p-values were calculated for False Discovery Rate (FDR) multiple test correction at p=0.05.\nAdditionally, significance of individual genes was tested by parametric T-test and non parametric Mann-Whitney test using Bootstrapping approach based on repeated permutations of the data with 5% FDR for multiple testing.\nGene functional annotation, enrichment, and pathway analyses to identify the leading biological pathways that operated under LAQ treatment were performed by Ingenuity Pathways Analysis software (www.ingenuity.com).\nANOVA analysis was used to compare PBMC gene expression after 1, 6 or 24 month of LAQ treatment with baseline gene expression.\nFor each time point inventors performed analysis source of variation in dataset. (FIG. 1). Age, gender and batch effects were considered as confounders regarding LAQ or Placebo related changes. For each time point genes associated with Placebo effect were evaluated and excluded from further analysis. […]", "data": [{"smiles": "CCN(C(=O)c1c(O)c2c(Cl)cccc2n(C)c1=O)c1ccccc1", "note": "[LAQ, 5-chloro-N-ethyl-4-hydroxy-1-methyl-2-oxo-N-phenyl-1,2-dihydroquinoline-3-carboxamide]", "values": [{"measurement": "Fold-Change (1.0 vs. 0.0)", "setting": "LYVE1 220037_s_at", "result": "−1.139"}, {"measurement": "Fold-Change (1.0 vs. 0.0)", "setting": "MARCH6 201736_s_at", "result": "−1.139"}, {"measurement": "Fold-Change (1.0 vs. 0.0)", "setting": "MAX 210734_x_at", "result": "−1.284"}, {"measurement": "Fold-Change (1.0 vs. 0.0)", "setting": "MFAP3L 205442_at", "result": "−1.854"}, {"measurement": "Fold-Change (1.0 vs. 0.0)", "setting": "MFAP3L 210493_s_at", "result": "−1.464"}, {"measurement": "Fold-Change (1.0 vs. 0.0)", "setting": "MYL9 201058_s_at", "result": "−1.74"}, {"measurement": "Fold-Change (1.0 vs. 0.0)", "setting": "MYST3 202423_at", "result": "−1.08"}, {"measurement": "Fold-Change (1.0 vs. 0.0)", "setting": "NAT8B 206964_at", "result": "−1.746"}, {"measurement": "Fold-Change (1.0 vs. 0.0)", "setting": "NENF 218407_x_at", "result": "−1.141"}, {"measurement": "Fold-Change (1.0 vs. 0.0)", "setting": "NRGN 204081_at", "result": "−1.604"}, {"measurement": "Fold-Change (1.0 vs. 0.0)", "setting": "PDE5A 206757_at", "result": "−1.213"}, {"measurement": "Fold-Change (1.0 vs. 0.0)", "setting": "PDGFA 205463_s_at", "result": "−1.536"}, {"measurement": "Fold-Change (1.0 vs. 0.0)", "setting": "PGRMC1 201120_s_at", "result": "−1.432"}, {"measurement": "Fold-Change (1.0 vs. 0.0)", "setting": "PGRMC1 201121_s_at", "result": "−1.443"}, {"measurement": "Fold-Change (1.0 vs. 0.0)", "setting": "POPDC3 219926_at", "result": "−1.1575"}, {"measurement": "Fold-Change (1.0 vs. 0.0)", "setting": "POU1F1 207846_at", "result": "−1.091"}, {"measurement": "Fold-Change (1.0 vs. 0.0)", "setting": "PPM1A 203966_s_at", "result": "−1.182"}, {"measurement": "Fold-Change (1.0 vs. 0.0)", "setting": "PRKG1 207119_at", "result": "−1.185"}, {"measurement": "Fold-Change (1.0 vs. 0.0)", "setting": "PRPF4B 202127_at", "result": "−1.135"}, {"measurement": "Fold-Change (1.0 vs. 0.0)", "setting": "PSD3 218613_at", "result": "−1.258"}, {"measurement": "Fold-Change (1.0 vs. 0.0)", "setting": "PTCRA 211837_s_at", "result": "−1.274"}, {"measurement": "Fold-Change (1.0 vs. 0.0)", "setting": "PTCRA 215492_x_at", "result": "−1.526"}, {"measurement": "Fold-Change (1.0 vs. 0.0)", "setting": "PTGIS 210702_s_at", "result": "−1.095"}, {"measurement": "Fold-Change (1.0 vs. 0.0)", "setting": "RBM25 212031_at", "result": "−1.105"}, {"measurement": "Fold-Change (1.0 vs. 0.0)", "setting": "RET 211421_s_at", "result": "−1.221"}, {"measurement": "Fold-Change (1.0 vs. 0.0)", "setting": "SDPR 218711_s_at", "result": "−1.662"}, {"measurement": "Fold-Change (1.0 vs. 0.0)", "setting": "SELP 206049_at", "result": "−1.642"}, {"measurement": "Fold-Change (1.0 vs. 0.0)", "setting": "SEPT6 214298_x_at", "result": "−1.133"}, {"measurement": "Fold-Change (1.0 vs. 0.0)", "setting": "SF3B1 201071_x_at", "result": "−1.0879"}, {"measurement": "Fold-Change (1.0 vs. 0.0)", "setting": "SLC37A1 218928_s_at", "result": "−1.126"}, {"measurement": "Fold-Change (1.0 vs. 0.0)", "setting": "SPARC 200665_s_at", "result": "−1.776"}, {"measurement": "Fold-Change (1.0 vs. 0.0)", "setting": "SPARC 212667_at", "result": "−1.73"}, {"measurement": "Fold-Change (1.0 vs. 0.0)", "setting": "SRRT 201680_x_at", "result": "−1.118"}, {"measurement": "Fold-Change (1.0 vs. 0.0)", "setting": "TAL1 206283_s_at", "result": "−1.752"}, {"measurement": "Fold-Change (1.0 vs. 0.0)", "setting": "TAS2R4 221392_at", "result": "−1.203"}, {"measurement": "Fold-Change (1.0 vs. 0.0)", "setting": "TBXA2R 336_at", "result": "−1.433"}, {"measurement": "Fold-Change (1.0 vs. 0.0)", "setting": "TGFB1 203085_s_at", "result": "−1.24"}, {"measurement": "Fold-Change (1.0 vs. 0.0)", "setting": "TMED10 200929_at", "result": "−1.099"}, {"measurement": "Fold-Change (1.0 vs. 0.0)", "setting": "TNFSF4 207426_s_at", "result": "−1.7061"}, {"measurement": "Fold-Change (1.0 vs. 0.0)", "setting": "TPM1 210986_s_at", "result": "−1.555"}, {"measurement": "Fold-Change (1.0 vs. 0.0)", "setting": "TPM1 210987_x_at", "result": "−1.447"}, {"measurement": "Fold-Change (1.0 vs. 0.0)", "setting": "TPTE 220205_at", "result": "−1.158"}, {"measurement": "Fold-Change (1.0 vs. 0.0)", "setting": "TRIM58 215047_at", "result": "−1.777"}, {"measurement": "Fold-Change (1.0 vs. 0.0)", "setting": "TUBB2B 214023_x_at", "result": "−1.159"}, {"measurement": "Fold-Change (1.0 vs. 0.0)", "setting": "VCL 200931_s_at", "result": "−1.406"}, {"measurement": "Fold-Change (1.0 vs. 0.0)", "setting": "WASF3 204042_at", "result": "−1.606"}, {"measurement": "Fold-Change (1.0 vs. 0.0)", "setting": "WDR48 222157_s_at", "result": "−1.103"}, {"measurement": "Fold-Change (1.0 vs. 0.0)", "setting": "XK 206698_at", "result": "−1.88"}, {"measurement": "Fold-Change (1.0 vs. 0.0)", "setting": "XYLT1 213725_x_at", "result": 1.314}, {"measurement": "Fold-Change (1.0 vs. 0.0)", "setting": "ZNF415 205514_at", "result": "−1.154"}, {"measurement": "p, differential expression of cellular movement and migration", "setting": "after one month of LAQ treatment", "result": "3.49*10^−4"}, {"measurement": "genes (#), Caveolar mediated endocytosis", "setting": "after one month of treatment", "result": 8}, {"measurement": "genes (#), Cellular movement: Adhesion & migration of phagocytes", "setting": "after one month of treatment", "result": 9}, {"measurement": "genes (#), Chemotaxis of neutrophils", "setting": "after one month of treatment", "result": 4}, {"measurement": "genes (#), Clathrin mediated endocytosis", "setting": "after one month of treatment", "result": 12}, {"measurement": "genes (#), Hematological system: Activation of blood platelets", "setting": "after one month of treatment", "result": 13}, {"measurement": "genes (#), Hematological system: Aggregation of blood cells", "setting": "after one month of treatment", "result": 19}, {"measurement": "genes (#), Hematological system: Aggregation of blood platelets", "setting": "after one month of treatment", "result": 18}, {"measurement": "genes (#), Hematological system: Coagulation of blood", "setting": "after one month of treatment", "result": 14}, {"measurement": "genes (#), Inflammatory response: Adhesion of phagocytes", "setting": "after one month of treatment", "result": 9}, {"measurement": "genes (#), Inflammatory response: TGFb signaling", "setting": "after one month of treatment", "result": 10}, {"measurement": "genes (#), Transmigration of leukocytes", "setting": "after one month of treatment", "result": 8}]}]}
